Reference: paper PMC10072319 (Bioorganic & medicinal chemistry letters, 2023)

Key:
T. b. brucei Lister 427 = format: cell-based, Trypanosoma brucei brucei; conditions: for activity against T. b. brucei, in words: first pass screen at 4 μM
HEK293 cells = experiment: Resazurin cell viability; conditions: read-out: HEK293 CC50, 48 h, mean ± SD
T. b. brucei parasites = experiment: Time-kill experiment, parasites quantified by hemocytometer cell counting; format: cell-based, Trypanosoma brucei brucei; conditions: for time required to kill the parasites: all concentrations tested (46: 1, 2 and 4 μM; pentamidine: 0.5, 1 and 2 μM)
[1] = test system: T. b. brucei trypanosomes; experiment: Washout experiment; format: cell-based, Trypanosoma brucei brucei; conditions: 1, 2 and 4 μM for 6, 4 and 2 h, washed three times, monitored a further 48 h

| Compound | activity against T. b. brucei, in words (T. b. brucei Lister 427) | other results |
| --- | --- | --- |
| O=C(/C=C/c1ccccc1)/C=C/c1ccccc1 [Compound 3, dibenzylideneacetone] | – | EC50 (T. b. brucei Lister 427; read-out: T. b. brucei EC50, bloodstream forms, Lister 427, SYBR green, 72 h, mean ± SD): 0.8 ± 0.2 µM; CC50 (HEK293 cells): 8.33 ± 0.48 µM |
| O=C(/C=C/c1ccccc1)CC(=O)/C=C/c1ccccc1 [Compound 5] | no measurable activity | – |
| COc1cccc(/C=C/C(=O)CC(=O)/C=C/c2cccc(OC)c2)c1 [Compound 7] | inactive | – |
| COc1ccc(/C=C/C(=O)CC(=O)/C=C/c2ccc(OC)c(OC)c2)cc1OC [Compound 8] | inactive | – |
| O=C(/C=C/c1ccc(C(F)(F)F)cc1)CC(=O)/C=C/c1ccc(C(F)(F)F)cc1 [Compound 11] | inactive | – |
| O=C(/C=C/c1ccc(Cl)c(Cl)c1)CC(=O)/C=C/c1ccc(Cl)c(Cl)c1 [Compound 12] | inactive | – |
| COc1cc(/C=C/C(=O)/C=C/c2cc(OC)c(OC)c(OC)c2)cc(OC)c1OC [Compound 13] | sub-micromolar activity | – |
| COc1ccc(/C=C/C(=O)/C=C/c2ccc(OC)c(OC)c2)cc1OC [Compound 16] | sub-micromolar activity | selectivity index (SI = HEK293 CC50/T. b. brucei EC50) (T. b. brucei Lister 427): above 10 |
| O=C(/C=C/c1ccccc1Cl)/C=C/c1ccccc1Cl [Compound 19] | sub-micromolar activity | selectivity index (SI = HEK293 CC50/T. b. brucei EC50) (T. b. brucei Lister 427): above 10 |
| COc1cccc(/C=C/C(=O)/C=C/c2cccc(OC)c2)c1 [Compound 28] | inactive | – |
| COc1ccc(/C=C/C(=O)/C=C/c2ccc(OC)cc2)cc1 [Compound 29] | inactive | – |
| COc1cc(/C=C2\CCC/C(=C\c3cc(OC)cc(OC)c3)C2=O)cc(OC)c1 [Compound 34] | inactive | – |
| COc1ccc(/C=C/C(=O)/C=C/c2ccccc2)cc1 [Compound 35] | no activity | – |
| CN(C)c1ccc(/C=C/C(=O)/C=C/c2ccccc2)cc1 [Compound 40] | no activity | – |
| O=C(/C=C/c1ccccc1)/C=C/c1cccc([N+](=O)[O-])c1 [Compound 46] | – | time required to kill the parasites (T. b. brucei parasites): less than 24 h; time required to kill the parasite (T. b. brucei parasites; at 2 and 4 μM): less than 6 h; trypanocidal vs trypanostatic activity after washout [1]: trypanocidal rather than trypanostatic |
| N=C(N)c1ccc(OCCCCCOc2ccc(C(=N)N)cc2)cc1 [Pentamidine, reference compound] | – | time required to kill the parasites (T. b. brucei parasites): > 30 h |
